In US8410150B2, “Inhibitors of carnitine palmitoyltransferase and treating cancer” (University Health Network, priority 2007, dated 2013):
Where a name gives a salt, the structure may show the parent alone. Each block holds one compound with its values, some of them ahead of it.

Target: T1, human CPT1A (Homo sapiens, UniProt P50416)
T1 construct: made in house; host or cells: Saccharomyces cerevisiae (pESC-trp) or cultured mammalian cells (pCDNA3.1); mitochondrial extract
T1 sequence (P50416 1-773): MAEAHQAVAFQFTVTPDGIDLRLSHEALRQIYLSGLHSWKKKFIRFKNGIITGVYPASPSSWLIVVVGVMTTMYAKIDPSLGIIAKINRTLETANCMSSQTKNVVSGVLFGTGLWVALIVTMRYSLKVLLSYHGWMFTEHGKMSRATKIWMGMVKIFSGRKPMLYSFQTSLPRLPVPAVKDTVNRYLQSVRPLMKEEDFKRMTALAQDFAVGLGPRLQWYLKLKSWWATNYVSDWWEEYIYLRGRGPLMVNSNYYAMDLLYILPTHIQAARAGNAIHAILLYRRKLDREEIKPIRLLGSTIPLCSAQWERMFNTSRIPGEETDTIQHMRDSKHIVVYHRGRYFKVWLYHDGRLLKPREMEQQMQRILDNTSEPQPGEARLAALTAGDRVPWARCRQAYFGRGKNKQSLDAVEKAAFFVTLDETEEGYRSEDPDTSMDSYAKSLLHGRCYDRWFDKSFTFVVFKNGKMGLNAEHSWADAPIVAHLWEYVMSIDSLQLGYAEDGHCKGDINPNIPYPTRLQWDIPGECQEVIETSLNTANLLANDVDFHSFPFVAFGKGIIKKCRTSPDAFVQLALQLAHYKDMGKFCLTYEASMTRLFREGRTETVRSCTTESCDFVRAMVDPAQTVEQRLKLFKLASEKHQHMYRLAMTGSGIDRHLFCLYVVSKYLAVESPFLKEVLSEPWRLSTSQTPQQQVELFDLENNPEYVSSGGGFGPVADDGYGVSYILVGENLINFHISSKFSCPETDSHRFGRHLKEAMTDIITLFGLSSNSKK
Experiment: Human CPT1A LC/MS assay
Assay type: biochemical
Excerpt: Nucleotide sequences encoding human CPT1 enzymes were individually cloned into the yeast expression vector pESC-trp at the Cla1 (5′ terminus) and Pac1 (3′ terminus) restriction sites by PCR amplification of the open reading frame using oligonucleotide primers designed to encode the wild-type CPT1 protein sequence. Standard molecular biology techniques were used to transform and express the CPT1 proteins in the yeast Saccharomyces cerevisiae. The yeast cells were lysed by enzymatic degradation of the cell wall by Zymolase, and the mitochondria were isolated by standard biochemical techniques. The integrity of the isolated mitochondria was monitored by determining the activity of succinate dehydrogenase in the mitochondrial preparations. The mitochondrial extracts were stored at −80° C. in buffer containing 10 mM HEPES pH 7.4 and 250 mM sucrose.
Human CPT1 (A, B, C) genes were additionally cloned into the pCDNA3.1 vector individually for expression in cultured mammalian cells. Cells expressing the exogenous CPT1A were identified and grown under standard conditions. Mammalian cells were harvested, and mitochondrial extracts prepared using standard biochemical methods. The mitochondrial extracts were stored at −80° C. in buffer containing 10 mM HEPES pH 7.4 and 250 mM sucrose.
Assays were performed in 96-well plate format. Each 100 μL reaction contained 40 mM KCl, 50 mM TrisHCl pH 7.5, and 250 mM mannitol (Assay Buffer), and 1.6 μg protein of an extract, 20 μM palmitoyl-CoA, 50 μM L-carnitine, and 10 ug/mL BSA. Reactions were incubated at room temperature and stopped after 10 minutes by extraction with 200 μL of water saturated n-butanol containing myristoyl carnitine (500 nM) as an internal standard. The samples were thoroughly mixed, and the phases separated by centrifugation. Samples were prepared for analysis with a 10 fold dilution of the n-butanol phase containing the reaction product palmitoyl carnitine into a 50:50 (acetonitrile:water) solvent for analysis. […] of prepared sample was separated on a Phenomenex Jupiter 5μ C4 reverse-phase column using an Agilent 1100 HPLC with a gradient from 50% acetonitrile (0.5% acetic acid) to 100% acetonitrile and quantified by detection with a Bruker Esquire 3000plus mass spectrometer. The abundance of the palmitoyl carnitine product was determined relative to the internal standard and the actual quantity of palmitoyl carnitine can be determined from a standard curve prepared using the n-butanol solution containing the internal standard.
Compounds were evaluated in two formats, a screening format, and a dose response format. The screening format was performed by adding 25 μL compound in 20% DMSO and Assay Buffer to 25 μL of extract containing […] and Assay Buffer, followed by a 10 minute incubation at room temperature. 50 μL of 40 μM palmitoyl-CoA in Assay Buffer was added to the reaction mixture, mixed and incubated for 10 minutes at room temperature. A negative control for activity was also performed where the carnitine was omitted from the reaction. A positive control for activity was also performed by omitting compound from the solution containing 20% DMSO and Assay Buffer. The reaction mixture was extracted and analyzed as described above. The inhibition by compound was determined by comparing the control relative activity to the relative activity observed in wells containing the compound. Relative activity was determined by subtracting the relative intensity (area palmitoyl carnitine/area myristoyl carnitine) observed in the negative control from the relative intensity observed in the experimental well, and dividing by the relative activity observed in the positive control.
[formula] Compound characterization by dose response format was performed using the above described assay conditions and a 16 point compound titration in 2 fold compound dilution steps. The DMSO concentration was kept constant at 20% (v/v) for all compound concentrations.

[1] = human CPT1A LC/MS assay, dose response format

Structure (SMILES): CCCCC#Cc1ccc(C(=O)N[C@H](CC(=O)[O-])C[N+](C)(C)C)o1 [Example S4, (R)-3-(5-(hex-1-ynyl)furan-2-carboxamido)-4-(trimethylammonio)butanoate]
IC50 [1]: 10 to 100 µM

Structure (SMILES): CCCCCc1ccc(CCC2CCC(C(=O)N[C@H](CC(=O)[O-])C[N+](C)(C)C)O2)cc1 (stereo partly drawn) [Example S121, (3R)-3-(5-(4-pentylphenethyl)tetrahydrofuran-2-carboxamido)-4-(trimethylammonio)butanoate]
IC50 [1]: 1 to 10 µM

Structure (SMILES): C[N+](C)(C)C[C@H](N)CC(=O)[O-] [L-aminocarnitine, (R)-3-amino-4-(trimethylammonio)butanoate, reference compound]
IC50 (dose response assay, n=17): 7 ± 2.5 µM

Structure (SMILES): CCCCCCCc1ccc(NS(=O)(=O)N[C@H](CC(=O)[O-])C[N+](C)(C)C)cc1 [Example S27, (R)-3-(N-(4-heptylphenyl)sulfamoylamino)-4-(trimethylammonio)-butanoate]
IC50 [1]: ≤ 1 µM

Structure (SMILES): CCCCCc1ccc(C#Cc2ccc(C(=O)N[C@H](CC(=O)[O-])C[N+](C)(C)C)o2)cc1 [Example S115, (R)-3-carboxy-N,N,N-trimethyl-2-(5-((4-pentylphenyl)ethynyl)furan-2-carboxamido)propan-1-aminium 2,2,2-trifluoroacetate]
IC50 [1]: ≤ 1 µM

Structure (SMILES): CCCCCCC#Cc1ccc(NS(=O)(=O)N[C@H](CC(=O)[O-])C[N+](C)(C)C)cc1 [Example S106, (R)-3-(N-(4-(oct-1-ynyl)phenyl)sulfamoylamino)-4-(trimethylammonio) butanoate]
IC50 [1]: 1 to 10 µM

Structure (SMILES): CCCc1ccc(OCc2ccc(C(=O)N[C@H](CC(=O)[O-])C[N+](C)(C)C)o2)c(OC)c1 [Example S55, (R)-3-(5-((2-methoxy-4-propylphenoxy)methyl)furan-2-carboxamido)-4-(trimethylammonio)butanoate]
IC50 [1]: 10 to 100 µM

Structure (SMILES): Cc1nc(-c2cnccn2)sc1C(=O)N[C@H](CC(=O)[O-])C[N+](C)(C)C [Example S51, (R)-3-(4-methyl-2-(pyrazin-2-yl)thiazole-5-carboxamido)-4-(trimethyl-ammonio)butanoate]
IC50 [1]: > 2500 µM

Structure (SMILES): Cn1nc(C(F)(F)F)cc1-c1ccc(S(=O)(=O)N[C@H](CC(=O)O)C[N+](C)(C)C)s1 [Example S72, (R)-3-carboxy-N,N,N-trimethyl-2-(5-(1-methyl-3-(trifluoromethyl)-1H-pyrazol-5-yl)thiophene-2-sulfonamido)propan-1-aminium 2,2,2-trifluoroacetate]
IC50 [1]: 100 to 1000 µM

Structure (SMILES): CCCCCCCCOC(=O)Nc1ccc(S(=O)(=O)N[C@H](CC(=O)O)C[N+](C)(C)C)cc1 [Example S73, (R)-3-carboxy-N,N,N-trimethyl-2-(4-(octyloxycarbonylamino)phenyl-sulfonamido)propan-1-aminium 2,2,2-trifluoroacetate]
IC50 [1]: 10 to 100 µM

Structure (SMILES): CCCCCc1ccc(C#Cc2ccc(NS(=O)(=O)N[C@H](CC(=O)[O-])C[N+](C)(C)C)cc2)cc1 [Example S107, (R)-3-(N-(4-((4-pentylphenyl)ethynyl)phenyl)sulfamoylamino)-4-(trimethylammonio)butanoate]
IC50 [1]: 1 to 10 µM

Structure (SMILES): CCCCCCC#Cc1cccc(N(C)S(=O)(=O)N[C@H](CC(=O)[O-])C[N+](C)(C)C)c1 [Example S112, (R)-3-(N—(N-methyl-N-(3-(oct-1-ynyl)phenyl)sulfamoyl)amino)-4-(trimethyl-ammonio)butanoate]
IC50 [1]: 10 to 100 µM

Second part, the compound after the results:

IC50 [1]: 100 to 1000 µM
Structure (SMILES): C[N+](C)(C)C[C@@H](CC(=O)O)NC(=O)c1ccc(-c2cccs2)s1 [Example S44, (R)-3-(2,2′-bithiophene-5-carboxamido)-4-(trimethylammonio)butanoate]

IC50 [1]: ≤ 1 µM
Structure (SMILES): C[N+](C)(C)C[C@@H](CC(=O)O)NC(=O)c1ccc(CCc2ccccc2)s1 [Example S45, (R)-3-(5-phenethylthiophene-2-carboxamido)-4-(trimethylammonio)-butanoate]

IC50 [1]: 10 to 100 µM
Structure (SMILES): C[N+](C)(C)C[C@@H](CC(=O)O)NC(=O)c1ccc(C#Cc2ccccc2)cc1 [Example S62, (R)-3-(4-(phenylethynyl)benzamido)-4-(trimethylammonio)butanoate 2,2,2-trifluoroacetate]

IC50 [1]: 1 to 10 µM
Structure (SMILES): CCCCCCc1ccc(C#Cc2ccc(C(=O)N[C@H](CC(=O)O)C[N+](C)(C)C)o2)s1 [Example S118, (R)-3-carboxy-2-(5-((5-hexylthiophen-2-yl)ethynyl)furan-2-carboxamido)-N,N,N-trimethylpropan-1-aminium 2,2,2-trifluoroacetate]

IC50 [1]: ≤ 1 µM
Structure (SMILES): C[N+](C)(C)C[C@@H](CC(=O)[O-])NC(=O)c1ccc(CSc2ccc(Cl)cc2)o1 [Example S71, (R)-3-(5-((4-chlorophenylthio)methyl)furan-2-carboxamido)-4-(trimethyl-ammonio)butanoate]

IC50 [1]: ≤ 1 µM
Structure (SMILES): CCCCCCc1ccc(CCc2ccc(C(=O)N[C@H](CC(=O)O)C[N+](C)(C)C)o2)s1 [Example S119, (R)-3-(5-(2-(5-hexylthiophen-2-yl)ethyl)furan-2-carboxamido)-4-(trimethylammonio)butanoate]

IC50 [1]: 1000 to 2500 µM
Structure (SMILES): C[N+](C)(C)C[C@@H](CC(=O)O)NS(=O)(=O)c1ccc(-c2ccno2)s1 [Example S22, (R)-3-carboxy-2-(5-(isoxazol-5-yl)thiophene-2-sulfonamido)-N,N,N-trimethylpropan-1-aminium 2,2,2-trifluoroacetate]

IC50 [1]: 100 to 1000 µM
Structure (SMILES): C[N+](C)(C)C[C@@H](CC(=O)O)NC(=O)c1cccc(CCc2ccccc2)c1 [Example S46, (R)-3-(3-phenethylbenzamido)-4-(trimethylammonio)butanoate]

IC50 [1]: ≤ 1 µM
Structure (SMILES): CCOc1ccc(OCc2ccc(C(=O)N[C@H](CC(=O)[O-])C[N+](C)(C)C)o2)cc1 [Example S68, (R)-3-(5-((4-ethoxyphenoxy)methyl)furan-2-carboxamido)-4-(trimethyl-ammonio)butanoate]

IC50 [1]: 100 to 1000 µM
Structure (SMILES): C[N+](C)(C)C[C@@H](CC(=O)[O-])NC(=O)c1cccc(C#Cc2ccccc2)c1 [Example S48, (R)-3-(3-(phenylethynyl)benzamido)-4-(trimethylammonio)butanoate]

IC50 [1]: 100 to 1000 µM
Structure (SMILES): Cc1cccc(C#Cc2ccc(S(=O)(=O)N[C@H](CC(=O)O)C[N+](C)(C)C)s2)c1 [Example S76, (R)-3-carboxy-N,N,N-trimethyl-2-(5-(m-tolylethynyl)thiophene-2-sulfonamido)propan-1-aminium 2,2,2-trifluoroacetate]

IC50 [1]: 100 to 1000 µM
Structure (SMILES): C[N+](C)(C)C[C@@H](CC(=O)O)NC(=O)Nc1ccc(-c2ccccc2)cc1 [Example S17, (R)-2-(3-Biphenyl-4-ylureido)-3-carboxy-N,N,N-trimethylpropan-1-aminium acetate]

IC50 [1]: > 2500 µM
Structure (SMILES): C[N+](C)(C)C[C@@H](CC(=O)O)NC(=O)c1cccc(-c2cc[nH]n2)c1 [Example S57, (R)-3-(3-(1H-pyrazol-3-yl)benzamido)-4-(trimethylammonio)butanoate trifluoroacetate]
